# Reference: patent EP0626016B1, “[…] […]” (BRITISH TECHNOLOGY GROUP LIMITED, priority 1992, dated 1993)
# Like-named read-outs stand apart in the source and are kept apart here.
# Biological target: T1, HRP Type VIA (Armoracia rusticana, UniProt P00433)
# T1 sequence (P00433 31-338): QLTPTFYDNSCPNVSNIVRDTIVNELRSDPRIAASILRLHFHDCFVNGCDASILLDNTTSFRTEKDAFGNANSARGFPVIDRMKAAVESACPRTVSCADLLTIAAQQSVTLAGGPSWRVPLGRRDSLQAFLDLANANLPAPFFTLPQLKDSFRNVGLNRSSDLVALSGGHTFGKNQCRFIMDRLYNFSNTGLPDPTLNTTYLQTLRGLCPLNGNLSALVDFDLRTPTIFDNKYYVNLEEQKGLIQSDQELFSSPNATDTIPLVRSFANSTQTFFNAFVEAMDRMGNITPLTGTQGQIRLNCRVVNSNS
# Details: for (d) Signal: Background: ratio (control = with no enhancer): control value in brackets not reported
"(a) Decrease in background (without HRP with test cpd.) (0.01 mg/ml, 10µl test compound)","(b) Increase in signal (with HRP, with test cpd.) (0.01 mg/ml, 10µl test compound)","(c) Increase in signal: background ratio (0.01 mg/ml, 10µl test compound)","(a) Decrease in background (without HRP with test cpd.) (0.1 mg/ml, 10µl test compound)","(b) Increase in signal (with HRP, with test cpd.) (0.1 mg/ml, 10µl test compound)","(d) Signal: Background: ratio (control = with no enhancer) (0.1 mg/ml, 10µl test compound)","(a) Decrease in background (without HRP with test cpd.) (1 mg/ml, 10µl test compound)","(b) Increase in signal (with HRP, with test cpd.) (1 mg/ml, 10µl test compound)","(c) Increase in signal: background ratio (1 mg/ml, 10µl test compound)","(d) Signal: Background: ratio (control = with no enhancer) (1 mg/ml, 10µl test compound)","(d) Signal: Background: ratio (control = with no enhancer) (0.01 mg/ml, 10µl test compound)",SMILES,"(c) Increase in signal: background ratio (0.1 mg/ml, 10µl test compound)",(a) Decrease in background (without HRP with test cpd.),"(b) Increase in signal (with HRP, with test cpd.)",(c) Increase in signal: background ratio
Y,N,N (N = no),Y,N,3.1 (2.7),Y,N,N (N = no),,,"OB(O)c1cc(Cl)ccc1Cl [Compound 1023, 2,5-dichlorophenylboronic acid]",N (N = no),,,
Y,N,N (N = no),Y,N,,Y,N,N (N = no),,2.1 (2.0),"OB(O)c1cc(Cl)cc(Cl)c1 [Compound 1025, 3,5-dichlorophenylboronic acid]",N (N = no),,,
Y,N,N (N = no),Y,N,3.2 (2.9),Y,N,N (N = no),,2.1 (2.0),"OB(O)c1ccccc1Cl [Compound 1027, 2-chlorophenylboronic acid]",N (N = no),,,
,,,,,,,,,,,"OB(O)c1cccc(Cl)c1 [Compound 1028, 3-chlorophenylboronic acid]",,Y,N and Y,
,,,,,,,,,,,"OB(O)c1ccc(Cl)cc1 [Compound 1029, 4-chlorophenylboronic acid]",,Y,Y,Y (key: Column (c) shows whether there was an increase in the signal:background ratio by over 25% of the control value (Y = yes; N = no)
Y,N,N (N = no),Y,N,3.3 (2.9),Y,N,N (N = no),,2.1 (2.0),"O=C(CCl)Nc1cccc(B(O)O)c1 [Compound 1031, 3-chloroacetylaminophenylboronic acid]",N (N = no),,,
Y,N,N (N = no),Y,N,3.4 (2.9),Y,N,N (N = no),,,"CCC(C)CNc1cccc(B(O)O)c1 (stereo not shown) [Compound 1032, 3-(2'-methylbutylamino)phenylboronic acid]",N (N = no),,,
Y,N,N (N = no),Y,N,,Y,N,N (N = no),,2.1 (2.0),"OB(O)c1ccc(B(O)O)cc1 [Compound 1035, 1,4-phenyldiboronic acid]",N (N = no),,,

SMILES,"(a) Decrease in background (without HRP with test cpd.) (0.01 mg/ml, 10µl test compound)","(b) Increase in signal (with HRP, with test cpd.) (0.01 mg/ml, 10µl test compound)","(c) Increase in signal: background ratio (0.01 mg/ml, 10µl test compound)","(a) Decrease in background (without HRP with test cpd.) (0.1 mg/ml, 10µl test compound)","(b) Increase in signal (with HRP, with test cpd.) (0.1 mg/ml, 10µl test compound)","(d) Signal: Background: ratio (control = with no enhancer) (0.1 mg/ml, 10µl test compound)","(a) Decrease in background (without HRP with test cpd.) (1 mg/ml, 10µl test compound)","(b) Increase in signal (with HRP, with test cpd.) (1 mg/ml, 10µl test compound)","(c) Increase in signal: background ratio (1 mg/ml, 10µl test compound)","(d) Signal: Background: ratio (control = with no enhancer) (1 mg/ml, 10µl test compound)","(d) Signal: Background: ratio (control = with no enhancer) (0.01 mg/ml, 10µl test compound)","(c) Increase in signal: background ratio (0.1 mg/ml, 10µl test compound)",(a) Decrease in background (without HRP with test cpd.),"(b) Increase in signal (with HRP, with test cpd.)",(c) Increase in signal: background ratio
"OB(O)c1ccc(Cl)c(Cl)c1 [Compound 1024, 3,4-dichlorophenylboronic acid]",Y,N,N (N = no),Y,Y,5.4 (2.8),Y,N,Y (Column (c) shows whether there was an increase in the signal:background ratio by over 25% of the control value (Y = yes),7.6 (4.5),,Y (Column (c) shows whether there was an increase in the signal:background ratio by over 25% of the control value (Y = yes),,,
"Nc1c(Cl)cc(Cl)c(B(O)O)c1Cl [Compound 1026, 3-amino-2,4,6-trichlorophenylboronic acid]",Y,N,N (N = no),Y,Y,72.4 (2.8),Y,N,Y (Column (c) shows whether there was an increase in the signal:background ratio by over 25% of the control value (Y = yes),40.5 (4.5),2.1 (2.0),Y (Column (c) shows whether there was an increase in the signal:background ratio by over 25% of the control value (Y = yes),,,
"OB(O)c1ccc(Nc2ccc(Cl)cc2)cc1 [Compound 1033, 4-(4'-chloroanilino)phenylboronic acid]",Y,Y,Y (Column (c) shows whether there was an increase in the signal:background ratio by over 25% of the control value (Y = yes),Y,Y,67.7 (2.8),Y,Y,Y (Column (c) shows whether there was an increase in the signal:background ratio by over 25% of the control value (Y = yes),173.9 (4.5),4.1 (1.8),Y (Column (c) shows whether there was an increase in the signal:background ratio by over 25% of the control value (Y = yes),,,
"Cc1ccc(B(O)O)cc1 [Compound 1034, 4-methylphenylboronic acid]",Y,N,Y (Column (c) shows whether there was an increase in the signal:background ratio by over 25% of the control value (Y = yes),Y,Y,41.2 (2.9),Y,N,N (N = no),,3.6 (1.9),Y (Column (c) shows whether there was an increase in the signal:background ratio by over 25% of the control value (Y = yes),,,
"OB(O)c1ccc(-c2ccc(B(O)O)cc2)cc1 [Compound 1037, 4,4'-bis(phenylboronic acid)]",Y,Y,Y (Column (c) shows whether there was an increase in the signal:background ratio by over 25% of the control value (Y = yes),Y,Y,503.3 (2.9),Y,N,N (N = no),,35.5 (1.9),Y (Column (c) shows whether there was an increase in the signal:background ratio by over 25% of the control value (Y = yes),,,
"CCCCOB(OCCCC)c1ccc(-c2ccc(Br)cc2)cc1 [Compound 1038, 4-(4'-bromophenyl)phenyl-di-n-butoxyborane]",Y Y,Y Y,Y Y (Column (c) shows whether there was an increase in the signal:background ratio by over 25% of the control value (Y = yes),Y Y,Y Y,2118.5,Y,Y,Y (Column (c) shows whether there was an increase in the signal:background ratio by over 25% of the control value (Y = yes),903.8 (4.5),442.2,Y Y (Column (c) shows whether there was an increase in the signal:background ratio by over 25% of the control value (Y = yes),,,
